Results taken from patent US20090044345A1, “Use of Metal Complex Compounds as Oxidation Catalysts” (priority 2006, published 2009).

Legend:
[1] = Stain bleaching in laundry at ambient temperature (hydrogen peroxide), tea stain; parameters: key: CIE brightness Y difference: washed with catalyst minus without; details: 10 mmol/l hydrogen peroxide; catalyst 25 μmol/l; IEC 60456* washing agent 7.5 g/l; 50 minutes at ambient temperature; brightness vs. absence of catalyst
Protocol: (§1) 1 g of a circular stain (BC01 Tea, CFT; WFK10.0 Carrot juice, WFK; CS20/2 Tomato, CFT; BC04 Curry, CFT) was added into a vial with 3 ml washing liquor. The liquor contained a standard washing agent (IEC 60456*) in a concentration of 7.5 g/l. The hydrogen peroxide concentration was 10 mmol/l. The catalyst concentration (1:1 in-situ complex of the ligand with manganese(II) chloride tetrahydrate or iron (ii) chloride in methanolic solution) was 25 μmol/l. The vial was shaken with a shaker for 50 minutes at ambient temperature. After the treatment the fabric was carefully rinsed and ironed. The brightness values Y according to the CIE standard procedure of the stained test fabrics were measured with a Gretag SPM 100 instrument prior to and after the treatment, respectively. The bleaching effect is given as ΔΔY, i.e. the difference between the brightness of the fabrics washed in presence and in the absence of a catalyst, respectively.

[2] = Stain bleaching in laundry at 40° C.; parameters: key: CIE brightness increase of stain vs. reference run without catalyst; details: tea-stained cotton; 10 mmol/l hydrogen peroxide; catalyst 20 μmol/l; IEC 60456 A* detergent 7.5 g/l; LINITEST 30 minutes at 40° C.; relative to no catalyst
Protocol: 7.5 g of white cotton fabric and 2.5 g of tea-stained cotton fabric were treated in 80 ml of washing liquor. The liquor contained a standard detergent (IEC 60456 A*) in a concentration of 7.5 g/l. The hydrogen peroxide concentration was 10 mmol/l. The catalyst concentration (1:1 in-situ complex of the ligand with manganese(II) chloride tetrahydrate in methanolic solution) was 20 μmol/l. The washing process was carried out in a steel beaker in a LINITEST apparatus for 30 minutes at 40° C. To evaluate the bleaching results, the increase in brightness ΔΔY of the stains relative to reference experiments without the addition of catalyst (brightness according to CIE) was determined spectrophotometrically.

[3] = Dishwashing: removal of tea deposit from tea-stained cups (IKW method); parameters: key: visual scale 0 = unchanged, very strong deposit to 10 = no deposit; details: visual scale 0 (very strong deposit) to 10 (no deposit); carbonate buffer pH 9.6, 44 mM hydrogen peroxide, 20 μM catalyst, 15 minutes; reference without catalyst 4.5
Protocol: Tea-stained cups were prepared according to the IKW method (IKW-Arbeitskreis Maschinenspülmittel, “Methoden zur Bestimmung der Reinigungsleistung von maschinellen Geschirrspülmitteln (Part A and B)”, SÖFW, 11+14, 1998). Tea-stained cups were filled with a carbonate buffer solution (pH 9.6) containing 44 mM hydrogen peroxide and 20 μM catalyst (1:1 in-situ complex of the ligand with manganese(II) chloride tetrahydrate in methanolic solution). After 15 minutes the solution was removed, and the cups were rinsed with water. The removal of the tea deposit was evaluated visually on a scale from 0 (i.e. unchanged, very strong deposit) to 10 (i.e. no deposit).

[4] = Stain bleaching in laundry at ambient temperature (hydrogen peroxide), tomato stain; parameters: key: CIE brightness Y difference: washed with catalyst minus without; details: 10 mmol/l hydrogen peroxide; catalyst 25 μmol/l; IEC 60456* washing agent 7.5 g/l; 50 minutes at ambient temperature; brightness vs. absence of catalyst
Protocol: as §1

[5] = Stain bleaching in laundry at ambient temperature (hydrogen peroxide), carrot juice stain; parameters: key: CIE brightness Y difference: washed with catalyst minus without; details: 10 mmol/l hydrogen peroxide; catalyst 25 μmol/l; IEC 60456* washing agent 7.5 g/l; 50 minutes at ambient temperature; brightness vs. absence of catalyst
Protocol: as §1

[6] = Stain bleaching in laundry at ambient temperature (hydrogen peroxide), curry stain; parameters: key: CIE brightness Y difference: washed with catalyst minus without; details: 10 mmol/l hydrogen peroxide; catalyst 25 μmol/l; IEC 60456* washing agent 7.5 g/l; 50 minutes at ambient temperature; brightness vs. absence of catalyst
Protocol: as §1

[7] = Stain bleaching in laundry with peracetic acid as oxidant, carrot juice stain; details: peracetic acid 3 mmol/l; catalyst 10 μmol/l; IEC 60456* washing agent 7.5 g/l; 50 minutes at ambient temperature; vs. absence of catalyst
Protocol: as §1, with “CFT; WFK 0.0” for “CFT; WFK10.0”, “The peracetic acid” for “The hydrogen peroxide”, “was 3” for “was 10”, “was 10” for “was 25”, “presence vs.” for “presence and in”

[8] = Stain bleaching in laundry with peracetic acid as oxidant, tomato stain; details: peracetic acid 3 mmol/l; catalyst 10 μmol/l; IEC 60456* washing agent 7.5 g/l; 50 minutes at ambient temperature; vs. absence of catalyst
Protocol: as §1, with “CFT; WFK 0.0” for “CFT; WFK10.0”, “The peracetic acid” for “The hydrogen peroxide”, “was 3” for “was 10”, “was 10” for “was 25”, “presence vs.” for “presence and in”

[9] = Stain bleaching in laundry with peracetic acid as oxidant, tea stain; details: peracetic acid 3 mmol/l; catalyst 10 μmol/l; IEC 60456* washing agent 7.5 g/l; 50 minutes at ambient temperature; vs. absence of catalyst
Protocol: as §1, with “CFT; WFK 0.0” for “CFT; WFK10.0”, “The peracetic acid” for “The hydrogen peroxide”, “was 3” for “was 10”, “was 10” for “was 25”, “presence vs.” for “presence and in”

[10] = Stain bleaching in laundry with peracetic acid as oxidant, curry stain; details: peracetic acid 3 mmol/l; catalyst 10 μmol/l; IEC 60456* washing agent 7.5 g/l; 50 minutes at ambient temperature; vs. absence of catalyst
Protocol: as §1, with “CFT; WFK 0.0” for “CFT; WFK10.0”, “The peracetic acid” for “The hydrogen peroxide”, “was 3” for “was 10”, “was 10” for “was 25”, “presence vs.” for “presence and in”

Structure (SMILES)	ΔΔY (Tea) [1]	ΔΔY [2]	Rating [3]	ΔΔY (Tomato) [4]	ΔΔY (Carrot Juice) [5]	ΔY Δ(Curry) [6]	ΔΔY (Carrot Juice) [7]	ΔΔY (Tomato) [8]	ΔΔY (Tea) [9]	ΔΔY (Curry) [10]
CN(Cc1ccccn1)Cc1cc(O)cc(-c2ccccn2)n1 [Ligand 23-Mn, 6-[(methyl-pyridin-2-ylmethyl-amino)-methyl]-[2,2′]bipyridinyl-4-ol]	2.9	2.1	6.0	0.6	1.3	7.4				
CN(Cc1cc(N(C)C)ccn1)Cc1cc(O)cc(-c2cc(N(C)CCO)ccn2)n1 [Ligand 33-Mn, 6-{[(4-dimethylamino-pyridin-2-ylmethyl)-methyl-amino]-methyl}-4′-[(2-hydroxy-ethyl)-methyl-amino]-[2,2′]bipyridinyl-4-ol]	5.5	3.9	7.1	6.0	3.9	9.1	3.4	1.5	6.1	5.7
CN1CCN(c2ccnc(-c3cc(O)cc(CN(C)Cc4ccccn4)n3)c2)CC1 [Ligand 29-Mn, 4′-(4-methyl-piperazin-1-yl)-6-[(methyl-pyridin-2-ylmethyl-amino)-methyl]-[2,2′]bipyridinyl-4-ol]	6.4		6.1	4.4	3.1	8.3				
CN(Cc1cc(N2CCCC2)ccn1)Cc1cc(O)cc(-c2cc(N3CCCC3)ccn2)n1 [Ligand 39-Mn, 6-{[methyl-(4-pyrrolidin-1-yl-pyridin-2-ylmethyl)-amino]-methyl}-4′-pyrrolidin-1-yl-[2,2′]bipyridinyl-4-ol]	5.1	4.0	6.3	8.8	4.2	7.9				
CN(Cc1cc(N(C)C)ccn1)Cc1cc(N(C)C)cc(-c2cc(N(C)C)ccn2)n1 [Ligand 40b-Mn]	1.7	1.0	5.8	2.3	2.7	3.7				
COc1c(C)cnc(CN(C)Cc2cc(O)cc(-c3cc(N4CCCC4)ccn3)n2)c1C [Ligand 36-Mn, 6-{[(4-methoxy-3,5-dimethyl-pyridin-2-ylmethyl)-methyl-amino]-methyl}-4′-pyrrolidin-1-yl-[2,2′]bipyridinyl-4-ol]	4.0	1.6	6.9	4.9	3.3	6.3				
CN(Cc1cc(-n2cccc2)ccn1)Cc1cc(O)cc(-c2cc(N(C)C)ccn2)n1 [Ligand 40c-Mn, 4′-dimethylamino-6-{[methyl-(4-pyrrol-1-yl-pyridin-2-ylmethyl)-amino]-methyl}-[2,2′]bipyridinyl-4-ol]	3.9	2.2	6.8	1.3	2.5	4.9				
CN(Cc1cc(N(C)C)ccn1)Cc1cc(O)cc(-c2cc(N(C)C)ccn2)n1 [Ligand 40a-Mn, 4′-dimethylamino-6-{[(4-dimethylamino-pyridin-2-ylmethyl)-methyl-amino]-methyl}-[2,2′]bipyridinyl-4-ol]	7.0	3.0	5.9	5.0	5.0	3.0	1.6	3.5	7.0	6.4
CN1CCN(c2ccnc(-c3cc(O)cc(CN(C)Cc4ccccn4)n3)c2)CC1 [Ligand 29/Fe, 4′-(4-methyl-piperazin-1-yl)-6-[(methyl-pyridin-2-ylmethyl-amino)-methyl]-[2,2′]bipyridinyl-4-ol]		5.0								
CN(Cc1ccccn1)Cc1cc(O)cc(-c2cc(N3CC[N+](C)(C)CC3)ccn2)n1.[I-] [Ligand 30-Mn, 4-{4′-hydroxy-6′-[(methyl-pyridin-2-ylmethyl-amino)-methyl]-[2,2′]bipyridinyl-4-yl}-1,1-dimethyl-piperazin-1-ium iodide]	7.0	4.5	7.8	7.4	3.6	7.1				
CN(Cc1cc(N(C)C)ccn1)Cc1cc(O)cc(-c2cc(N3CCCC3)ccn2)n1 [Ligand 32-Mn, 6-{[(4-dimethylamino-pyridin-2-ylmethyl)-methyl-amino]-methyl}-4′-pyrrolidin-1-yl-[2,2′]bipyridinyl-4-ol]	6.4	4.5	6.0	5.6	3.1	8.5	2.5	1.2	5.6	5.3
CN(Cc1ccccn1)Cc1cc(O)cc(-c2cc(N3CCCC3)ccn2)n1 [Ligand 27-Mn, 6-[(methyl-pyridin-2-ylmethyl-amino)-methyl]-4′-pyrrolidin-1-yl-[2,2′]bipyridinyl-4-ol]	5.3	2.7	6.7	4.7	1.3	8.2				
